# Assay results taken from publication PMC10107299, “Neutralizing the Impact of the Virulence Factor LecA from Pseudomonas aeruginosa on Human Cells with New Glycomimetic Inhibitors” (Angewandte Chemie (International Ed. in English), 2023).
# Where two headings read alike, the source gives them in different places.
# Legend:
# LecA [1] = target: T1, LecA (Pseudomonas aeruginosa, UniProt Q05097); test: Competitive binding assay based on fluorescence polarization
# T1 construct: made in house
# Experimental: All synthesized galactosides were then evaluated for LecA inhibition using a competitive binding assay based on fluorescence polarization (Figure S1).[24]
# Expression and purification of LecA as well as competitive binding by fluorescence polarization was performed as described by Joachim et al..[9] The assay was performed in TBS/Ca2+ buffer (20 mM Tris, 137 mM NaCl, 2.6 mM KCl at pH 7.4 supplemented with 1 mM CaCl2) in presence of 25% DMSO. Averages and standard deviations were calculated from at least three independent experiments. […]
# RR OR In h i b i to r [µ M ]
# R R In h i b i to r [µ M ] […]
# R In h i b i to r [µ M ] 30 L2
# 30 F2 40 K2 In h i b i to r [µ M ] […]
# In h i b i to r [µ M ] In h i b i to r [µ M ]
# Figure S1: Evaluation of amide divalent LecA ligands in a competitive binding assay based on fluorescence […]
# representative experiment is shown or each series. Averages and standard deviations from at least three independent titrations of triplicates each.
# […] Fluorescence polarization [mP] -1 0 1 2 3 0 1001010 Me-α-Gal pNO2-Ph-β-Gal 1000 Inhibitor [µM] Fluorescence polarization [mP])
# LecA [2] = target: T1, LecA; test: Direct binding to immobilized LecA by surface plasmon resonance (SPR); settings: for Relative potency r.p. (SPR): compared to respective monovalent compound in each series; for kon: SPR single-cycle kinetics, 25 °C, N=3 (I1 N=1)
# Experimental: K d values were oscillating with the number of methylene units present in the linker, presumably linked to the zig‐zag geometry of the hydrocarbon chain.
# Expression and purification of LecA as well as competitive binding by fluorescence polarization was performed as described by Joachim et al..[9] […]
# Surface plasmon resonance experiments were performed on a BIACORE X100 instrument (GE Healthcare) at 25 °C as described by Zahorska et. al..[8] Averages and standard deviations were calculated from three independent experiments. […]
# Figure S3: SPR of divalent LecA ligands from benzene series. Sensorgrams obtained from SPR single-cycle kinetics experiments. Five different concentrations of each compound (0, 10, 50, 100, 200 nM) were sequentially injected to obtain the experimental sensorgrams (blue lines), which were then fitted by a 1:1 model (orange) on BIACORE evaluation software. […]
# Figure S4: SPR of divalent LecA ligands from pyridine and sulfonated series. Sensorgrams obtained from SPR single-cycle kinetics experiments. Five different concentrations of each compound (0, 10, 50, 100, 200 nM) were sequentially injected to obtain the experimental sensorgrams (blue lines), which were then fitted by a 1:1 model (orange) on BIACORE evaluation software.
# (also on this page, place not known: Response (RU)0 Response (RU)0 Response (RU) Response (RU) Response (RU) Response (RU) 030060090012001500) […]
# T1 sequence (Q05097 whole entry): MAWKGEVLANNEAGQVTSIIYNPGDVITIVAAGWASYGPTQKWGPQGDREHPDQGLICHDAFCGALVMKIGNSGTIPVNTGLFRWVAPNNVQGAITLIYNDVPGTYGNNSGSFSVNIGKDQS
SMILES,IC50 (LecA [1]),Kd (LecA [2]),Relative potency r.p. (SPR) (LecA [2]),koff (LecA [2]),kon (LecA [2]),"IC50 (LecA [1]; TBS/Ca2+ buffer, 25% DMSO, divalent ligands at lower assay limit, read-out: IC50 (LecA competitive binding, fluorescence polarization))"
COc1ccc(NC(=O)/C=C/c2ccc(O[C@@H]3O[C@H](CO)[C@H](O)[C@H](O)[C@H]3O)cc2)cc1 [Compound A1],18.8 ± 6.6 µM,5.21 ± 0.6 µM,1,–,–,–
COc1ccc(NC(=O)CCc2ccc(O[C@@H]3O[C@H](CO)[C@H](O)[C@H](O)[C@H]3O)cc2)cc1 [Compound A2],18.9 ± 5.5 µM,5.38 ± 0.09 µM,1,–,–,–
O=C(/C=C/c1ccc(O[C@@H]2O[C@H](CO)[C@H](O)[C@H](O)[C@H]2O)cc1)Nc1ccc(Oc2ccc(NC(=O)/C=C/c3ccc(O[C@@H]4O[C@H](CO)[C@H](O)[C@H](O)[C@H]4O)cc3)cc2)cc1 [Compound B1],6.6 ± 1.5 µM,0.0673 ± 0.0094 µM,77,0.00596 ± 0.00206 s⁻¹,89 ± 29 x10^3/Ms,–
O=C(CCc1ccc(O[C@@H]2O[C@H](CO)[C@H](O)[C@H](O)[C@H]2O)cc1)Nc1ccc(Oc2ccc(NC(=O)CCc3ccc(O[C@@H]4O[C@H](CO)[C@H](O)[C@H](O)[C@H]4O)cc3)cc2)cc1 [Compound B2],3.6 ± 1.3 µM,0.0221 ± 0.0003 µM,244,0.00349 ± 8e-05 s⁻¹,158 ± 5.7 x10^3/Ms,–
O=C(/C=C/c1ccc(O[C@@H]2O[C@H](CO)[C@H](O)[C@H](O)[C@H]2O)cc1)Nc1ccc(OCOc2ccc(NC(=O)/C=C/c3ccc(O[C@@H]4O[C@H](CO)[C@H](O)[C@H](O)[C@H]4O)cc3)cc2)cc1 [Compound C1],4.7 ± 2.6 µM,0.0377 ± 0.011 µM,138,0.00379 ± 0.00089 s⁻¹,110 ± 52 x10^3/Ms,–
O=C(CCc1ccc(O[C@@H]2O[C@H](CO)[C@H](O)[C@H](O)[C@H]2O)cc1)Nc1ccc(OCOc2ccc(NC(=O)CCc3ccc(O[C@@H]4O[C@H](CO)[C@H](O)[C@H](O)[C@H]4O)cc3)cc2)cc1 [Compound C2],4.2 ± 1.7 µM,0.0153 ± 0.0006 µM,352,0.00462 ± 0.0002 s⁻¹,303 ± 20 x10^3/Ms,–
O=C(/C=C/c1ccc(O[C@@H]2O[C@H](CO)[C@H](O)[C@H](O)[C@H]2O)cc1)Nc1ccc(OCCCOc2ccc(NC(=O)/C=C/c3ccc(O[C@@H]4O[C@H](CO)[C@H](O)[C@H](O)[C@H]4O)cc3)cc2)cc1 [Compound E1],4.5 ± 1.6 µM,0.156 ± 0.038 µM,33,0.00251 ± 0.00022 s⁻¹,16.9 ± 5.2 x10^3/Ms,–
O=C(CCc1ccc(O[C@@H]2O[C@H](CO)[C@H](O)[C@H](O)[C@H]2O)cc1)Nc1ccc(OCCCOc2ccc(NC(=O)CCc3ccc(O[C@@H]4O[C@H](CO)[C@H](O)[C@H](O)[C@H]4O)cc3)cc2)cc1 [Compound E2],3.5 ± 1 µM,0.0185 ± 0.0015 µM,291,0.00345 ± 0.00013 s⁻¹,187 ± 13 x10^3/Ms,–
O=C(/C=C/c1ccc(O[C@@H]2O[C@H](CO)[C@H](O)[C@H](O)[C@H]2O)cc1)Nc1ccc(OCCCCOc2ccc(NC(=O)/C=C/c3ccc(O[C@@H]4O[C@H](CO)[C@H](O)[C@H](O)[C@H]4O)cc3)cc2)cc1 [Compound F1],7.9 ± 4.8 µM,2.25 ± 0.3 µM,2,0.00388 ± 0.00043 s⁻¹,1.75 ± 0.3 x10^3/Ms,–
O=C(CCc1ccc(O[C@@H]2O[C@H](CO)[C@H](O)[C@H](O)[C@H]2O)cc1)Nc1ccc(OCCCCOc2ccc(NC(=O)CCc3ccc(O[C@@H]4O[C@H](CO)[C@H](O)[C@H](O)[C@H]4O)cc3)cc2)cc1 [Compound F2],4.4 ± 1.5 µM,0.0231 ± 0.011 µM,233,0.00366 ± 0.00042 s⁻¹,175 ± 55 x10^3/Ms,–
O=C(/C=C/c1ccc(O[C@@H]2O[C@H](CO)[C@H](O)[C@H](O)[C@H]2O)cc1)Nc1ccc(OCCCOc2ccc(NC(=O)/C=C/c3ccc(O[C@@H]4O[C@H](CO)[C@H](O)[C@H](O)[C@H]4O)cc3)cn2)nc1 [Compound I1],6.6 ± 4 µM,0.0402 µM,74,0.00227 s⁻¹,68200 M⁻¹ s⁻¹,–
"O=[N+]([O-])c1ccc(O[C@@H]2O[C@H](CO)[C@H](O)[C@H](O)[C@H]2O)cc1 [pNO2-Ph-β-Gal, reference compound]",–,–,–,–,–,39.8 ± 12 µM
